Measured values: ChEMBL document CHEMBL5620412, “Discovery of benzofuran-2-carboxylic acid derivatives as lymphoid tyrosine phosphatase (LYP) inhibitors for cancer immunotherapy” (Eur J Med Chem, 2023)
Active and inactive are the calls of the source. The rule behind the calls is not given here.

Legend:
MC-38 [1] = experiment: Antitumor immunity against mouse MC-38 cells implanted in syngenic C57BL/6J mouse model assessed as increase in CD45+ cell proportion in tumor at 50 mg/kg, IG administered twice daily for 14 days by flow cytometric analysis; assay type: functional, organism-based; conditions: time 14.0 day
Jurkat T [2] = experiment: Activation of TCR signaling in human Jurkat T cells assessed as increase in LCK phosphorylation preincubated with compound for 1 hrs followed by anti-CD3 stimulation and measured after 45 mins by immunoblot analysis; assay type: cell-based; conditions: filed as activator, time 105.0 min
MC-38 [3] = experiment: Antitumor immunity against mouse MC-38 cells implanted in syngenic C57BL/6J mouse model assessed as increase in NKT cell proportion at 50 mg/kg, IG administered twice daily for 14 days; assay type: functional, organism-based; conditions: time 14.0 day
MC-38 [4] = experiment: Antitumor immunity against mouse MC-38 cells implanted in syngenic C57BL/6J mouse model assessed as increase in CD4+ T cell proportion in tumor at 50 mg/kg, IG administered twice daily for 14 days by flow cytometric analysis; assay type: functional, organism-based; conditions: time 14.0 day
[5] = Upregulation of PD-L1 expression in mouse MC-38 cells at 10 uM incubated for 48 hrs by flow cytometric analysis (reference value: 23.3%); assay type: functional
MC-38 [6] = experiment: Antitumor immunity against mouse MC-38 cells implanted in syngenic C57BL/6J mouse model assessed as increase in CD8+ T cell proportion in tumor at 50 mg/kg, IG administered twice daily for 14 days by flow cytometric analysis; assay type: functional, organism-based; conditions: time 14.0 day
MC-38 [7] = experiment: Antitumor immunity against mouse MC-38 cells implanted in syngenic C57BL/6J mouse model assessed as upregulation of PD1 expression in CD4+ T cells at 50 mg/kg, IG administered twice daily for 14 days by flow cytometric analysis; assay type: functional, organism-based; conditions: time 14.0 day
MC-38 [8] = experiment: Antitumor immunity against mouse MC-38 cells implanted in syngenic C57BL/6J mouse model assessed as upregulation of PD1 expression in CD8+ T cells at 50 mg/kg, IG administered twice daily for 14 days by flow cytometric analysis; assay type: functional, organism-based; conditions: time 14.0 day
Jurkat T [9] = experiment: Activation of TCR signaling in […] transfected human Jurkat T cells assessed as increase in ERK phosphorylation preincubated with compound for 1 hrs followed by anti-CD3 stimulation and measured after 45 mins by immunoblot analysis; assay type: cell-based; conditions: time 105.0 min
MC-38 [10] = experiment: Antitumor activity against mouse MC-38 cells implanted in syngenic C57BL/6J mouse model assessed as tumor growth inhibition at 50 mg/kg, IG administered twice daily for 14 days in presence of anti-PD-L1 antibody relative to control; assay type: functional; conditions: MC-38, po, 336 h, time 14 day, read-out: TGI
MC-38 [11] = experiment: Antitumor immunity against mouse MC-38 cells implanted in syngenic C57BL/6J mouse model assessed as increase in TNF-alpha expression at 50 mg/kg, IG administered twice daily for 14 days; assay type: functional, organism-based; conditions: time 14.0 day
MC-38 [12] = experiment: Antitumor immunity against mouse MC-38 cells implanted in syngenic C57BL/6J mouse model assessed as increase in Ki67 positive CD4+ T cells at 50 mg/kg, IG administered twice daily for 14 days by Ki67 staining based flow cytometric analysis; assay type: functional, organism-based; conditions: time 14.0 day
MC-38 [13] = experiment: Antitumor immunity against mouse MC-38 cells implanted in syngenic C57BL/6J mouse model assessed as upregulation of PD-L1 expression in dendritic cells at 50 mg/kg, IG administered twice daily for 14 days by flow cytometric analysis; assay type: functional, organism-based; conditions: time 14.0 day
MC-38 [14] = experiment: Antitumor immunity against mouse MC-38 cells implanted in syngenic C57BL/6J mouse model assessed as increase in Ki67 positive CD8+ T cells at 50 mg/kg, IG administered twice daily for 14 days by Ki67 staining based flow cytometric analysis; assay type: functional, organism-based; conditions: time 14.0 day
[15] = Toxicity in C57BL/6J syngenic mouse implanted with mouse MC-38 cells assessed as effect on body weight at 50 mg/kg, IG administered twice daily for 14 days; assay type: organism-based; conditions: in vivo, po, 336 h, time 14 day
MC-38 [16] = experiment: Antitumor immunity against mouse MC-38 cells implanted in syngenic C57BL/6J mouse model assessed as increase in M1 tumor associated macrophage proportion in tumor at 50 mg/kg, IG administered twice daily for 14 days by flow cytometric analysis; assay type: functional, organism-based; conditions: time 14.0 day
MC-38 [17] = experiment: Antitumor immunity against mouse MC-38 cells implanted in syngenic C57BL/6J mouse model assessed as inhibition of M2 polarization of tumor associated macrophage in tumor at 50 mg/kg, IG administered twice daily for 14 days by flow cytometric analysis; assay type: functional, organism-based; conditions: time 14.0 day
MC-38 [18] = experiment: Antitumor immunity against mouse MC-38 cells implanted in syngenic C57BL/6J mouse model assessed as inhibition of M2 polarization of tumor associated macrophage in spleen at 50 mg/kg, IG administered twice daily for 14 days by flow cytometric analysis; assay type: functional, organism-based; conditions: time 14.0 day
[19] = Upregulation of PD-L1 expression in mouse MC-38 cells at 20 uM incubated for 48 hrs by flow cytometric analysis (reference value: 23.3%); assay type: functional
MC-38 [20] = experiment: Antitumor activity against mouse MC-38 cells implanted in syngenic C57BL/6J mouse model at 50 mg/kg, IG administered twice daily for 14 days by H&E staining based analysis; assay type: functional, organism-based; conditions: time 14.0 day
Jurkat T [21] = experiment: Activation of TCR signaling in human Jurkat T cells assessed as increase in ERK phosphorylation preincubated with compound for 1 hrs followed by anti-CD3 stimulation and measured after 45 mins by immunoblot analysis; assay type: cell-based; conditions: filed as activator, time 105.0 min
MC-38 [22] = experiment: Antiproliferative activity against mouse MC-38 cells assessed as reduction in cell viability upto 4 uM incubated for 72 hrs by CCK8 assay; assay type: functional, cell-based
MC-38 [23] = experiment: Antitumor activity against mouse MC-38 cells implanted in syngenic C57BL/6J mouse model assessed as tumor growth inhibition at 50 mg/kg, IG administered twice daily for 14 days relative to control; assay type: functional; conditions: MC-38, po, 336 h, time 14 day, read-out: TGI

SMILES | Activity (MC-38 [1]) | Activity (Jurkat T [2]) | Activity (MC-38 [3]) | Activity (MC-38 [4]) | Activity [5] | Activity (MC-38 [6]) | Activity (MC-38 [7]) | Activity (MC-38 [8]) | Activity (Jurkat T [9]) | inhibition in vivo at 50 mg/kg (MC-38 [10]) | Activity (MC-38 [11]) | Activity (MC-38 [12]) | Activity (MC-38 [13]) | Activity (MC-38 [14]) | Activity [15] | Activity (MC-38 [16]) | Activity (MC-38 [17]) | Activity (MC-38 [18]) | Activity [19] | Activity (MC-38 [20]) | further results
O=C(O)c1cc2cc(N(Cc3ccc(OCc4ccccc4)cc3)S(=O)(=O)c3ccc(-c4ccccc4)cc3)ccc2o1 | Active | Active | Active | Active | 46.1% | Active | Active | Active | inactive | 94.3% | Active | Active | Active | Active | Non-Toxic | Active | Active | Active | 59.2% | Active | Activity (Jurkat T [21]): Active; Activity (MC-38 [22]): inactive; inhibition in vivo at 50 mg/kg (MC-38 [23]): 65%
COc1ccc(-c2ccc(CN(c3ccc4oc(C(=O)O)cc4c3)S(=O)(=O)c3ccc(Cl)c([N+](=O)[O-])c3)cc2)cc1 | Active | Active | Active | Active | 37.2% | Active | Active | Active | inactive | 94.3% | Active | Active | Active | Active | Non-Toxic | Active | Active | Active | 43.6% | Active | Activity (Jurkat T [21]): Active; Activity (MC-38 [22]): inactive; inhibition in vivo at 50 mg/kg (MC-38 [23]): 69.6%
